Reference: patent US9718790B2, “Triazine derivative and pharmaceutical composition having an analgesic activity comprising the same” (SHIONOGI & CO., LTD., priority 2010, dated 2017)

Biological target: human P2X3 receptor (Homo sapiens (Human), UniProt P56373)
Assay: Evaluation of human P2X3 receptor inhibitory activity (Fluo-3 calcium fluorescence, FDSS 3000, ATP stimulation);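 further: stimulus was 50 nM ATP with fluorescence followed for 3 min, and the response per well was peak post-ATP fluorescence divided by the reading at measurement start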
Type: cell-based
Conditions: C6BU-1 cells stably expressing human P2X3 receptor

Sequence of human P2X3 receptor (P56373 whole entry): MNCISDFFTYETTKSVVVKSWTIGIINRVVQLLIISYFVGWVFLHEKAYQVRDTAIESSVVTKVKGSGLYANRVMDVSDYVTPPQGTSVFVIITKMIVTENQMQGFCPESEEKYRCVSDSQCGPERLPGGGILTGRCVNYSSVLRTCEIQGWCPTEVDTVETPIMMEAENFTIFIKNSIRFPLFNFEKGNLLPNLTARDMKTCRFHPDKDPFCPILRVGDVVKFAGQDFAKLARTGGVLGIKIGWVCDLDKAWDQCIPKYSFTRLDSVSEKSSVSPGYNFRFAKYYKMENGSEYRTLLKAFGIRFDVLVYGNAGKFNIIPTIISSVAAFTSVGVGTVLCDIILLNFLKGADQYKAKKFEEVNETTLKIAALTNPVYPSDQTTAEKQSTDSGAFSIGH

Q: With `CCn1c(=O)[nH]/c(=N\c2ccc(Oc3nc(OC)nc(OC)n3)cc2)n(Cc2ccc(Cl)cc2)c1=O` [Compound I-2220] as the compound, how does the IC50 read?
A: 37 nM

Q: `O=C(O)c1cc(Oc2ccc(/N=c3\[nH]c(=O)[nH]c(=O)n3Cc3ccc(Cl)cc3)cc2F)ccn1` [Compound I-2141] was tested. Which IC50 did it give?
A: 7 nM

Q: With `Cc1ccc(Cn2c(=O)n(C[C@H](C)C(=O)O)c(=O)[nH]/c2=N\c2ccc(OC3CCCCC3)cc2)cc1` [Compound I-1222] as the compound, how does the IC50 read?
A: 17 nM

Q: `Cc1ccc(Cn2c(=O)n(CCC(=O)O)c(=O)[nH]/c2=N\c2ccc3c(ccc(=O)n3C)c2)cc1` [Compound I-2128] was tested. Which IC50 did it give?
A: 287 nM

Q: With `CCCCOc1ccc(/N=c2\[nH]c(=O)n(C[C@H](C)C(=O)O)c(=O)n2Cc2ccc(Cl)cc2)cc1` [Compound I-0819] as the compound, how does the IC50 read?
A: 22 nM

Q: Which IC50 does the source give for `CCOC(=O)CCn1c(=O)[nH]/c(=N\c2ccc(OC(C)C)c(OC)c2)n(Cc2ccc(C)cc2)c1=O` [Compound I-1246] here?
A: 6 nM

Q: For `Cc1cc(/N=c2\[nH]c(=O)n(Cc3cccn(CCOC4CCCCO4)c3=O)c(=O)n2Cc2ccc(Cl)cc2)ccc1OC(C)C` (stereo not shown) [Compound I-0712], which IC50 is on record?
A: 25 nM

Q: With `Cc1ccc(Cn2c(=O)n(C[C@H](C)C(=O)O)c(=O)[nH]/c2=N\c2ccc(OC3COC3)cc2)cc1` [Compound I-1221] as the compound, how does the IC50 read?
A: 117 nM

Q: How did the IC50 turn out when `CCOC(=O)CC(C)(C)n1c(=O)[nH]/c(=N\c2ccc(OC(C)C)c(F)c2)n(Cc2ccc(Cl)cc2)c1=O` [Compound I-0822] was run?
A: 26 nM

Q: For `COC(=O)[C@@H](C)Cn1c(=O)[nH]/c(=N\c2cnc(Oc3ccccc3)c(Cl)c2)n(Cc2ccc(C)cc2)c1=O` [Compound I-1474], which IC50 is on record?
A: 138 nM

Q: For `COC(=O)[C@@H](C)[C@@H](C)n1c(=O)[nH]/c(=N\c2cccc(C(F)(F)F)c2)n(Cc2ccc(Cl)cc2)c1=O` [Compound I-1317], which IC50 is on record?
A: 105 nM

Q: How did the IC50 turn out when `COC(=O)[C@H](C)[C@H](C)n1c(=O)[nH]/c(=N\c2ccc3nc(C)ccc3c2)n(Cc2ccc(Cl)cc2)c1=O` [Compound I-1322] was run?
A: 20 nM

Q: With `CCOC(=O)CCn1c(=O)[nH]/c(=N\c2ccc(OC(C)C)c(CO)c2)n(Cc2ccc(C)cc2)c1=O` [Compound I-1424] as the compound, how does the IC50 read?
A: 35 nM

Q: With `COC(=O)[C@@H](C)Cn1c(=O)[nH]/c(=N\c2ccc3oc(C)cc3c2)n(Cc2ccc(C)cc2)c1=O` [Compound I-0671] as the compound, how does the IC50 read?
A: 15 nM

Q: Which IC50 does the source give for `Cc1ccc(Cn2c(=O)n(CCC(=O)O)c(=O)[nH]/c2=N\c2ccc(OC(C)C)c(C3CC3)c2)cc1` [Compound I-1303] here?
A: 66 nM

Q: `CCCn1c(=O)[nH]/c(=N\c2ccc(Oc3ccnc(C(=O)OC)c3)cc2)n(Cc2ccc(Cl)cc2)c1=O` [Compound I-2160] was tested. Which IC50 did it give?
A: 3 nM

Q: How did the IC50 turn out when `CC(C)c1cccc(/N=c2\[nH]c(=O)n(C[C@H](C)C(=O)O)c(=O)n2Cc2ccc(Cl)cc2)c1` [Compound I-0792] was run?
A: 170 nM

Q: With `CC(C)Oc1ccc(/N=c2\[nH]c(OCC(=O)O)nc(=O)n2Cc2ccc(Cl)cc2)cc1F` [Compound I-0581] as the compound, how does the IC50 read?
A: 145 nM

Q: `CCCOc1ccc(/N=c2\[nH]c(=O)n([C@H](C)[C@H](C)C(=O)OC)c(=O)n2Cc2ccc(C)cc2)cc1` [Compound I-1313] was tested. Which IC50 did it give?
A: 62 nM

Q: For `CCOC(=O)CCCn1c(=O)[nH]/c(=N\c2ccc(Oc3ccnc(C)c3)cc2)n(Cc2ccc(C)cc2)c1=O` [Compound I-1397], which IC50 is on record?
A: 3 nM

Q: With `COC(=O)[C@@H](C)Cn1c(=O)[nH]/c(=N\c2ccc(OCC(F)F)c(C)c2)n(Cc2ccc(Cl)cc2)c1=O` [Compound I-0738] as the compound, how does the IC50 read?
A: 19 nM

Q: How did the IC50 turn out when `COC(=O)[C@@H](C)Cn1c(=O)[nH]/c(=N\c2ccc(NS(C)(=O)=O)cc2)n(Cc2ccc(C)cc2)c1=O` [Compound I-1416] was run?
A: 141 nM

Q: With `CC(C)Oc1ccc(/N=c2\[nH]c(=O)n(CCc3ncn[nH]3)c(=O)n2Cc2ccc(Cl)cc2)cc1F` [Compound I-0672, 1-(4-chlorobenzyl)-6-(3-fluoro-4-isopropoxyphenylimino)-3-[2-(1,2,4-triazol-5-yl)ethyl]-1,3,5-triazinane-2,4-dion] as the compound, how does the IC50 read?
A: 8 nM

Q: How did the IC50 turn out when `COC(=O)[C@@H](C)Cn1c(=O)[nH]/c(=N\c2ccc(Cc3ccncc3)cc2)n(Cc2ccc(C)cc2)c1=O` [Compound I-1241] was run?
A: 108 nM

Q: `CCn1c(=O)[nH]/c(=N\c2ccc(Oc3cncc(C(=O)O)c3)cc2)n(CC2CCC3(CC2)CC3)c1=O` [Compound I-2175] was tested. Which IC50 did it give?
A: 13 nM

Same assay, conditions: C6BU-1 cells stably expressing human P2X3 receptor, Fluo-3 fluorescence, FDSS 3000

Q: `CCC[C@H](C)Oc1ccc(/N=c2\[nH]c(=O)n(CCC(=O)OCC)c(=O)n2Cc2ccc(C)cc2)cc1` [Compound I-1052] was tested. Which IC50 did it give?
A: 19 nM

Q: `CCc1nc2ccc(/N=c3\[nH]c(=O)n(CCC(=O)NS(C)(=O)=O)c(=O)n3Cc3ccc(Cl)cc3)cc2s1` [Compound I-1875] was tested. Which IC50 did it give?
A: 13 nM

Q: For `C[C@@H](C(=O)O)[C@H](C)n1c(=O)[nH]/c(=N\c2ccc3c(c2)OC(F)(F)O3)n(Cc2ccc(Cl)cc2)c1=O` [Compound I-1821], which IC50 is on record?
A: 429 nM

Q: How did the IC50 turn out when `CCn1c(=O)[nH]/c(=N\c2ccc(Oc3ccnc(C(=O)NC)c3)cc2)n(Cc2ccc(Cl)cc2)c1=O` [Compound I-1717] was run?
A: 2 nM

Q: `CCc1oc2ccc(/N=c3\[nH]c(=O)n(CC(=O)NCCO)c(=O)n3Cc3ccc(Cl)cc3)cc2c1C` [Compound I-1658] was tested. Which IC50 did it give?
A: 6 nM

Q: `Cc1nc2ccc(/N=c3\[nH]c(=O)n(C)c(=O)n3Cc3ccc(Cl)cc3)cc2s1` [Compound I-1737] was tested. Which IC50 did it give?
A: 19 nM

Q: `C/C=C\c1ccc(Cn2c(=O)n(C[C@H](C)C(=O)O)c(=O)[nH]/c2=N\c2ccc(OC(C)C)cc2)cc1` [Compound I-1150] was tested. Which IC50 did it give?
A: 551 nM

Q: `CCc1oc2ccc(/N=c3\[nH]c(=O)n(CC(C)(C)C(=O)OC)c(=O)n3Cc3ccc(Cl)cc3)cc2c1C` [Compound I-1574] was tested. Which IC50 did it give?
A: 18 nM

Q: How did the IC50 turn out when `Cc1ccc(Cn2c(=O)n(CCC(=O)NS(C)(=O)=O)c(=O)[nH]/c2=N\c2ccc(OC(C)C)c(Cl)c2)cc1` [Compound I-1874] was run?
A: 13 nM

Q: For `CCn1c(=O)[nH]/c(=N\c2ccc(Oc3cc(O)ncn3)cc2)n(Cc2ccc(Cl)cc2)c1=O` [Compound I-1888], which IC50 is on record?
A: 10 nM

Q: Which IC50 does the source give for `Cc1cc(/N=c2\[nH]c(=O)n([C@H](C)[C@@H](C)C(=O)N[C@H](C)[C@@H](O)c3ccccc3)c(=O)n2Cc2ccc(Cl)cc2)ccc1OC(C)C` [Compound I-1163] here?
A: 823 nM

Q: `COc1ccc(Oc2ccc(/N=c3\[nH]c(=O)n(CC(N)=O)c(=O)n3Cc3ccc(Cl)cc3)cc2)cn1` [Compound I-1856] was tested. Which IC50 did it give?
A: 8 nM

Q: How did the IC50 turn out when `Cc1ccc(Cn2c(=O)n(CCC(=O)O)c(=O)[nH]/c2=N\c2ccc(OCC3CC3)cc2)cc1` [Compound I-1148] was run?
A: 86 nM

Q: `Cc1cc(/N=c2\[nH]c(=O)n(CCC(=O)O)c(=O)n2Cc2ccc(Cl)cc2)ccc1OC(C)C` [Compound I-1157] was tested. Which IC50 did it give?
A: 52 nM

Q: With `CCC[C@H](C)Oc1ccc(/N=c2\[nH]c(=O)n(C[C@H](C)C(=O)O)c(=O)n2Cc2ccc(C)cc2)cc1` [Compound I-1060] as the compound, how does the IC50 read?
A: 29 nM

Q: For `CCn1c(=O)[nH]/c(=N\c2ccc(Oc3ccc(NC(C)=O)cc3)cc2)n(Cc2ccc(Cl)cc2)c1=O` [Compound I-1871], which IC50 is on record?
A: 6 nM

Same assay, conditions: human P2X3 receptor, Test Example 1

Q: `Cc1sc(Oc2ccc(/N=c3\[nH]c(=O)n(C)c(=O)n3Cc3ccc(Cl)cc3)cc2)nc1C(=O)O` [Compound I-2451] was tested. Which IC50 did it give?
A: 25 nM

Q: For `COC(=O)CCn1c(=O)[nH]/c(=N\c2ccc(Oc3nc(C)ns3)cc2)n(Cc2ccc(Cl)cc2)c1=O` [Compound I-2651], which IC50 is on record?
A: 2 nM

Q: `COc1cccc(Oc2ccc(/N=c3\[nH]c(=O)n(CC(CO)CO)c(=O)n3Cc3ccc(Cl)cc3)cc2)n1` [Compound I-2641] was tested. Which IC50 did it give?
A: 12 nM

Q: `Cc1nsc(Oc2ccc(/N=c3\[nH]c(=O)n(CC(=O)NCCO)c(=O)n3Cc3ccc(Cl)cc3)cc2)n1` [Compound I-2678] was tested. Which IC50 did it give?
A: 3 nM

Q: How did the IC50 turn out when `O=c1[nH]/c(=N\c2ccc(Oc3cccc(F)n3)cc2)n(Cc2ccc(Cl)cc2)c(=O)n1C[C@H](O)CO` [Compound I-2436] was run?
A: 4 nM

Q: `COC(=O)[C@@H](C)Cn1c(=O)[nH]/c(=N\c2ccc(CC(C)C)cc2)n(Cc2ccc(C)cc2)c1=O` [Compound I-0860] was tested. Which IC50 did it give?
A: 62 nM

Q: `CCn1c(=O)[nH]/c(=N\c2ccc(Oc3ccon3)cc2)n(Cc2ccc(Cl)cc2)c1=O` [Compound I-2357] was tested. Which IC50 did it give?
A: 12 nM

Q: How did the IC50 turn out when `CCOC(=O)Cn1c(=O)[nH]/c(=N\c2ccc(Oc3cnsn3)cc2)n(Cc2ccc(Cl)cc2)c1=O` [Compound I-2629] was run?
A: 6 nM

Q: Which IC50 does the source give for `CNC(=O)Cn1c(=O)[nH]/c(=N\c2ccc(Oc3nccs3)cc2)n(Cc2ccc(Cl)cc2)c1=O` [Compound I-2645] here?
A: 18 nM

Q: With `Cc1ccc(/N=c2\[nH]c(=O)n(C[C@H](C)C(=O)O)c(=O)n2Cc2ccc(Cl)cc2)cc1C(F)(F)F` [Compound I-0843] as the compound, how does the IC50 read?
A: 183 nM

Q: Which IC50 does the source give for `CCc1nc2ccc(/N=c3\[nH]c(=O)n(CCC(=O)O)c(=O)n3Cc3ccc(C)cc3)cc2s1` [Compound I-1510] here?
A: 13 nM

Q: `Cc1ccc(Cn2c(=O)n(CCC(=O)O)c(=O)[nH]/c2=N\c2ccc(Oc3cc(C(=O)O)ccn3)cc2)cc1` [Compound I-2671] was tested. Which IC50 did it give?
A: 36 nM

Q: `O=c1[nH]/c(=N\c2ccc(Oc3ccon3)cc2)n(Cc2ccc(Cl)cc2)c(=O)n1CCOC1CCCCO1` (stereo not shown) [Compound I-2288] was tested. Which IC50 did it give?
A: 1 nM

Q: Which IC50 does the source give for `CCOC(=O)C1(Cn2c(=O)[nH]/c(=N\c3ccc4oc(CC)c(C)c4c3)n(Cc3ccc(C)cc3)c2=O)CC1` [Compound I-1546] here?
A: 7 nM

Q: How did the IC50 turn out when `O=c1[nH]/c(=N\c2ccc(Oc3ccon3)cc2)n(Cc2ccc(Cl)cc2)c(=O)n1C(CO)CO` [Compound I-2542] was run?
A: 186 nM

Q: Which IC50 does the source give for `CCn1c(=O)[nH]/c(=N\c2ccc(Oc3cncc(C#N)c3)cc2)n(Cc2ccc(Cl)cn2)c1=O` [Compound I-2318] here?
A: 18 nM

Q: With `CC[C@@H](Cn1c(=O)[nH]/c(=N\c2ccc(OC(C)C)c(C)c2)n(Cc2ccc(Cl)cc2)c1=O)C(=O)O` [Compound I-0889] as the compound, how does the IC50 read?
A: 53 nM

Q: `CNC(=O)[C@@H](C)n1c(=O)[nH]/c(=N\c2ccc(Oc3ccon3)cc2)n(Cc2ccc(Cl)cc2)c1=O` [Compound I-2534] was tested. Which IC50 did it give?
A: 105 nM

Q: Which IC50 does the source give for `CCn1c(=O)[nH]/c(=N\c2ccc(Oc3cncc(C(N)=O)n3)cc2)n(Cc2ccc(Cl)cc2)c1=O` [Compound I-2284] here?
A: < 4 nM

Q: For `Cc1ccc(Cn2c(=O)n(CC3(C(=O)O)COC3)c(=O)[nH]/c2=N\c2ccc(CC(C)C)c(Cl)c2)cc1` [Compound I-1496], which IC50 is on record?
A: 9 nM

Q: Which IC50 does the source give for `CCCOc1ccc(/N=c2\[nH]c(=O)n(CC(F)(F)C(=O)O)c(=O)n2Cc2ccc(C)cc2)cc1` [Compound I-0871] here?
A: 40 nM

Q: For `Cc1ccc(Cn2c(=O)n(C)c(=O)[nH]/c2=N\c2ccc(Oc3cc(C#N)ccn3)cc2)cc1` [Compound I-2340], which IC50 is on record?
A: 13 nM

Q: How did the IC50 turn out when `CCn1c(=O)[nH]/c(=N\c2ccc(Oc3nccc(C(=O)O)n3)cc2)n(Cc2ccc(C)cc2)c1=O` [Compound I-2404] was run?
A: 16 nM
